Measured values published in PubChem BioAssay AID179 (DTP/NCI, 2004).
pEC50, pIC50: −log10 of the molar value. The source made the active and inactive calls.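 How the source made its calls: active means compounds giving half or more protection of infected cells from virus-caused growth loss, again on retest; inactive means the rest.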 Where a SMILES comes first, the peptide text is derived from it.

System: CEM cells HIV-1 protection, formazan growth assay
Experiment: NCI AIDS Antiviral Assay
Details: for pIC50: measured here: growth of uninfected CEM cells
In short: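 Category rules: moderately active means at least 50% protection on retest, and confirmed active means 100% protection reproducibly. The underlying data came from a formazan growth assay in HIV-1-infected CEM cells.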

Compound	pEC50	pIC50	outcome
Cc1c(N)c(C#N)c2n(C)c3ncccc3n2c1=O	< 3.70	< 3.70	
C=C1CC[C@@H](O)[C@]2(C)CC[C@@H](C(C)(C)O)[C@@H](OC3OC(CO)C(O)C(O)C3O)C12 (some centres not stated)	< 3.54	< 3.54	
CC(=O)NC1C(O[C@H]2CC[C@@]3(C)C(CC[C@]4(C)C3CC=C3C5CC(C)(C)CC[C@]5(C(=O)O)CCC34C)C2(C)C)OC(CO)C(O)C1O (some centres not stated)	< 3.70	5.04	
COC(=O)C1(Cc2ccc3c(c2)CCC3)Cc2ccc3c(c2C1)CCC3 (configuration not stated)	< 3.70	4.43	
COc1ccc(C=C(C(=O)O)C(=O)O)cc1	< 2.95	< 2.95	
CC1C=CN(N(C)C)C2=C1C(=O)c1cnccc1C2=O (configuration not stated)	< 4.70	5.91	
C=C[Si](C)(C)COC(=O)/C(C#N)=C/C=C/c1ccccc1	< 5.04	< 5.04	
CC1(C)[C@@H]2C[C@H]1C(Cc1ccccc1C[C@H]1c3cc(-c4ccccn4)ncc3[C@H]3C[C@@H]1C3(C)C)c1cc(-c3ccccn3)ncc12 (some centres not stated)	< 3.70	6.50	
COc1ccc(CCn2cncn2)cc1	< 2.98	< 2.98	
CC(=O)OCC(C)C1=C(O)C(=O)C2(C)C/C=C(/C)CC/C=C(\C)CCC(O)C(C)CCC12 (configuration not stated)	< 3.70	4.94	
Cn1c2ccccc2n2c3ncccc3c(=S)c(C#N)c12	< 3.70	< 3.70	
CC(=O)C(C(C)=O)=C1CCCC(O)O1 (configuration not stated)	< 3.70	3.76	
CC(C)CC1C(=O)NCCC(NC(=O)C(Cc2ccc(OC(C)(C)C)cc2)NC(=O)OC(C)(C)C)C(=O)NC(Cc2ccccc2)C(=O)NC(Cc2ccccc2)NC1=O (configuration not stated)	< 4.20	5.14	
O=[N+]([O-])c1cccnc1S(=O)(=O)c1ccccc1	< 3.31	5.96	
OC12COc3ccccc3C1Oc1ccccc1C2 (configuration not stated)			inactive
CCOC(=O)/C=C(/N=P(c1ccccc1)(c1ccccc1)c1ccccc1)C(F)(F)F	< 3.70	4.86	
O=S(=O)(O)Oc1cc2c(c(OS(=O)(=O)O)c1)C[C@H](OS(=O)(=O)O)[C@@H](c1ccc(OS(=O)(=O)O)c(OS(=O)(=O)O)c1)O2	4.04	3.76	
COc1ccc(-c2nnc(CCCCCCCCc3nnc(-c4ccc(OC)cc4)n3N)n2N)cc1	< 3.70	< 3.70	
Cc1ccc(S(=O)(=O)N2/C(=C/c3ccccc3)C(=O)c3ccccc3-c3ccccc32)cc1	< 4.94	< 4.94	
CCOC(=O)/C=C/SCCC(=O)OC	< 2.94	3.05	
CC(=O)Nc1c(C#N)c2n(c1C(=O)Nc1ccc(Cl)cc1)CCC2	< 3.70	< 3.70	

Compound	pEC50	pIC50	outcome
Nc1cc(=O)[nH]c(N)n1			inactive
Cc1cc(=O)oc2c(C)c(O)ccc12	< 3.86	4.01	
O=c1c2ccccc2ncn1O	< 3.70	< 3.70	
CC(C)(c1cccs1)c1cscc1C(=O)O	< 3.70	< 3.70	
C=CCNC(=O)N(CCC)CCCC(NC(C)=O)C(=O)NCc1ccccc1 (configuration not stated)	< 3.19	< 3.19	
Cc1[nH]c(=O)c2oc3cc4ccccc4cc3c2c1C(=O)O	< 3.70	< 3.70	
COc1ccc(C2=C(N)c3cc(OC)ccc3C2=O)cc1	< 3.70	< 3.70	
CC1(C)CNC[C@@](C)(OCCO)C(=O)[N-]C(C)(C)CNC[C@@](C)(OCCO)C(=O)[N-]1.[Ni+2]	< 3.70	< 3.70	
COc1cc(OC)c(/C=C\c2cc(/C=C/c3c(OC)cc(OC)cc3OC)c3ccccc3[n+]2C)c(OC)c1	< 5.10	6.45	
CCCC1=NC(C(F)(F)F)(C(F)(F)F)N=C(N2CCOCC2)O1	< 3.70	< 3.70	
c1ccc2c(c1)[nH]c1c2nc2ccccn21	< 2.99	< 2.99	inactive
COS(=O)CCOC(=O)c1ccccc1SSc1ccccc1C(=O)OCCS(=O)OC (configuration not stated)	3.95	< 3.70	
O=C1CCC2=C(CCCC2=O)N1	< 3.70	< 3.70	
CC1=C(C(=O)Nc2ccccc2C)C(c2ccco2)C(C(=O)Nc2ccccc2C)=C(C)N1C	< 4.66	< 4.66	
O=[N+]([O-])c1cc(Cl)ccc1Sc1ccccc1			inactive
C/C(=N\N=C(/[O-])c1ccncc1)c1cccc(/C(C)=N/N=C(\[O-])c2ccncc2)n1.O.[Cu+2]	< 3.70	5.65	
CC(=O)OC1CN2CCC1CC2 (configuration not stated)	< 3.70	< 3.70	
O=C1COc2cc3c(cc2N1)SCCC(=O)N3	< 4.40	< 4.40	
CCOC(=O)/C(=C\c1ccc(F)cc1)[Se]c1ccccc1	< 4.41	< 4.41	
CCOC(=O)/C=C(/OCC)[C@@H]1C(C(=O)c2ccc(Cl)cc2)[C@H]1/C(=C\C(=O)OCC)OCC (some centres not stated)	< 3.70	4.76	
COc1cc(C2C3=C(N=C4SC(C(C)=O)=C(C)N42)c2ccccc2CC3)cc(OC)c1OC (configuration not stated)	< 3.70	4.39	

Compound	pEC50	pIC50	outcome
CCOC(=O)c1c(N)sc2c1CCCC2	< 3.70	4.25	
Cc1cc(C)nc(NS(=O)(=O)c2ccc(Nc3c4ccc(Cl)cc4nc4c(C(=O)Nc5ccc(S(N)(=O)=O)cc5)cccc34)cc2)n1	< 4.28	4.37	
CC1CCN(C(C)C)P(=S)(Cc2ccccc2)O1 (configuration not stated)	< 3.70	3.91	
Cc1nc(C)c(C(=O)NNC(=O)c2ccccc2)cc1C(=O)NNC(=O)c1ccccc1	< 3.70	< 3.70	
COc1ccccc1C1=Nc2ccccc2N=C(c2ccccc2O)C1	< 3.70	4.03	
CC(NC(=O)CNC(=O)C(N)CO)C(=O)NC(CCC(N)=O)C(=O)NC(CCC(=O)O)C(=O)NC(C)C(=O)NC(CCC(=O)O)C(=O)NC(CCCCN)C(=O)NC(CCC(N)=O)C(=O)NC(CCCN=C(N)N)C(=O)NC(C(=O)NC(CC(N)=O)C(=O)NC(C)C(=O)NC(Cc1cnc[nH]1)C(=O)NC(CO)C(=O)O)C(C)O (configuration not stated) (H-SGAQEAEKQRTNAHS-OH; configuration not given here)	< 4.00	< 4.00	
CCCCCCN(CCCCCC)C(=O)Cc1c2n(c3ccccc13)Cc1ccccc1-2	< 5.20	< 5.20	
COC1OC(CO)C(NC2=N[C@@H]3[C@H](O2)[C@@H](O)[C@H](O)[C@]3(O)CO)C(O)C1O (some centres not stated)	< 4.30	< 4.30	
COC(=O)c1nc2[nH]n(-c3ccccc3)c(=O)c2c2c1CCCCCCCCCC2	< 3.91	3.94	
CO/C(=N\N=C\c1ccc(OC)c(OC)c1)c1ccncc1	< 3.36	3.53	
O=Cc1cn(C(=O)c2ccccc2)c2ccccc12			inactive
CC(C)C(=Nc1ccc(Cl)c(Cl)c1)N(C)C	< 3.70	< 4.00	
O=C(NNC(=S)S)c1ccncc1	< 3.70	4.02	
CNC1C(OC2C(OC3C(O)C(O)C(O)C(O)C3O)OC(C)C2(O)CO)OC(CO)C(O)C1O (configuration not stated) (tested in a mixture with another compound)			inactive
COc1cc2c(c(O)c1OC)c(=O)c1ccccc1n2C	< 3.70	4.18	
COC(=O)c1cc(C#N)[nH]c1-c1cc(Br)cs1	< 3.70	4.93	
Cc1ccc(S(=O)(=O)Nn2c(O)c(C#N)c(-c3ccc(N(C)C)cc3)c(C#N)c2=O)cc1	< 3.70	< 3.70	
COc1cccc2c(=O)c3c(n(C)c12)OC(C(C)C)C3 (configuration not stated)	< 3.47	3.90	
NCC=C1C2CC3CC(C2)CC1C3			inactive
O=C1C2=C(Nc3ccccc3N2)OC1c1ccncc1 (configuration not stated)	< 4.42	< 4.42	
Nc1ncnc2c1N=CN(Oc1ccccc1)N2			inactive

Compound	pEC50	pIC50	outcome
CCc1[nH]nc(-c2ccc(OC)cc2)c1-c1ccccc1O	< 3.70	4.68	
CON(C)C(=O)C1CCCO1 (configuration not stated)	< 3.70	< 3.70	
[O-]c1c2c(nn1-c1ccc(F)cc1)c1ccccc1c[n+]2Cc1ccccc1			inactive
C[N+]1(CCCCN2c3ccccc3Sc3cc(N=[N+]=[N-])ccc32)CCN(C(=O)CCNC(=O)Cc2ccc(C(=O)c3ccccc3)cc2)CC1	< 4.00	4.81	
CC(C)(C)C(=O)OCOP(=O)(OCOC(=O)C(C)(C)C)OCC1OC(N2C=CC(N)NC2=O)CC1F (configuration not stated)	5.95	4.06	
O=C(C[n+]1ccccc1Br)c1ccc2ccccc2c1	< 3.70	5.02	
CC(=O)O[C@H]1CC[C@@]2(C)C(=CC[C@@H]3C2CC[C@@]2(C)C3CC[C@@H]2c2ncc(C)s2)C1 (some centres not stated)	< 4.22	< 4.22	
N/N=C1/C(=O)N(c2ccc(Cl)cc2)C(=O)C(=O)C1c1nc2ccccc2s1 (configuration not stated)	< 4.74	< 4.74	
c1ccc(COC2C3COC(O3)C(OCc3ccccc3)C2OCc2ccccc2)cc1 (configuration not stated)	< 3.70	4.82	
Nc1ncnc2c1ncn2C1CC(OCc2ccccc2[N+](=O)[O-])C(CO)O1 (configuration not stated)	< 4.30	4.44	
Cc1ccc(S(=O)(=O)/C(C#N)=C/NC(=S)Nc2ccc(S(N)(=O)=O)cc2)cc1			inactive
Cc1ccc(S(=O)(=O)OC(F)(F)C(F)(F)F)cc1	< 3.63	< 3.63	
Cc1ccnc(NC(=S)Nc2ccccc2Cl)c1	< 3.70	< 3.70	
C1=CC2C=CC(C=C1)P2c1ccccc1 (configuration not stated)			inactive
COC(=O)C(Cc1c(C2Nc3ccccc3C2CC(NC(=O)CNC(C)=O)C(=O)OC)[nH]c2ccccc12)NC(=O)CNC(C)=O (configuration not stated)	< 3.70	< 3.70	
C[C@@]12C[C@@H](OC(=O)[C@]1(C)O)[C@@H]([C@]1(O)CC[C@H]3[C@@H]4C[C@H]5O[C@]56CC=CC(=O)[C@]6(C)[C@H]4CC[C@@]31C)C2	7.70	6.49	
CCc1cc(C(=O)OC)cn1C(=N)c1ccc(Cl)cc1	< 3.07	< 3.07	
COc1cc2c(cc1OC)C13CCN4CC5=CCOC6CC(=O)N2C1C6C5CC43 (configuration not stated) (tested in a mixture with another compound)	< 3.70	4.27	
CCOC(=O)C(C)(C)Oc1ccc(Cl)cc1	< 3.70	< 3.70	
O=C1CC2(C(=O)O1)C1C(=O)OC(=O)C1C1C=CC=NN12 (configuration not stated)	< 3.70	< 3.70	
